Tests used:
Assay type in all cases: cell-based
Conditions in all cases: human PBMCs, 24 hours incubation
[1] = system: TNFα; experiment: PBMC cytokine profiling assay, TNFα induction
Procedure: (§1) Certain compounds disclosed herein we tested according to the procedure described below. Additionally, certain reference compounds were prepared and tested along with the compounds of the present disclosure.
(§2) Compounds were dissolved and stored in DMSO (Sigma-Aldrich, St. Louis, MO) at 10 mM concentration.
(§3) Cryopreserved human PBMCs isolated from healthy donors were purchased from StemCell Technologies (Vancouver, Canada). Cell culture medium used was RPMI with L-Glutamine (Mediatech, Manassas, VA) supplemented with 10% fetal bovine serum (Hyclone, GE Healthcare, Logan, UT) and Penicillin-Streptomycin (Mediatech). Human TNFα, IL12p40, and IFNα2a 384-well Assay capture plates, standards, buffers and processing reagents were obtained from MesoScale Discovery Technologies (MSD; Rockville, MD).
(§4) Cryopreserved human PBMCs (1×10e8 cells/ml) were thawed at 37° C. and resuspended in 25 mL warm cell culture medium. The cells were pelleted at 200×g (Beckman Avanti J-E) for 5 min and resuspended in 20 mL of fresh culture media. Cells were counted using a Cellometer (Nexcelcom Bioscience), adjusted to 2×10e6 cells, and incubated for 2 hours in an incubator set at 37° C., 5% CO2 to recover from cryopreservation. Compounds were serially diluted in DMSO at half-log steps to generate a 10-point dose range. Using a Bravo pipette equipped with a 384 well head (Agilent), 0.4 μL of compound was transferred to each well of a 384 well black, clear bottom plate (Greiner Bio-One, Germany) containing 30 μL of cell culture medium. Recovered PBMCs were then dispensed into the assay plate at 50 μL per well (100k cells/well) using the MicroFlow multichannel dispenser (Biotek). Final DMSO concentration was 0.5%. DMSO was used as the negative control. The plates were incubated for 24 hours at 37° C. PBMCs in the assay plate were pelleted by centrifugation (Beckman Avanti J-E) at 200×g for 5 min.
(§5) Using a Biomek FX 384 well pipetting station (Beckman), conditioned culture medium (CCM) from the assay plate was transferred to MSD capture plates customized for each cytokine. For IFNα and IL12-p40 detection, 25 μL and 20 μL of CCM were added directly to each capture plate, respectively. For TNFα detection, CCM was diluted 1:9 in fresh culture medium, and 20 μL of diluted CCM was used. Serially diluted calibration standards for each cytokine were used to generate standard curves and establish assay linearity. The plates were sealed and incubated overnight at 4° C. in a plate shaker (Titer Plate) set at 200 rpm. On the following day, antibodies specific for each cytokine were diluted 1:50 in MSD Diluent 100 antibody dilution buffer. Diluted antibodies were added to corresponding capture plates at 10 μL/well, and incubated at RT for 1-2 hrs in the shaker. The plates were washed with PBST buffer (3×, 60 μl/well) using a Biotek Multiflow plate washer. MSD Read Buffer diluted to 2× in deionized water and 35 μL/well was added via Biomek FX instrument. The plates were read immediately in a MSD6000 reader. Data were normalized to positive and negative controls in each assay plate. AC50 values represent compound concentrations at half-maximal effect based on normalized percent activation and calculated by non-linear regression using Pipeline Pilot software (Accelrys, San Diego, CA).

[2] = system: IL12p40; experiment: PBMC cytokine profiling assay, IL12-p40 induction
Procedure: as §1, §2, §3, §4, §5

[3] = system: IFNα; experiment: PBMC cytokine profiling assay, IFNα induction
Procedure: as §1, §2, §3, §4, §5

Structure (SMILES)	AC50 ([1]; Homo sapiens, PBMC, 24 h)	AC50 ([2]; Homo sapiens, PBMC, 24 h)	AC50 ([3]; Homo sapiens, PBMC, 24 h)	other results
CCCC[C@@H](CO)Nc1nc(N)nc2cccnc12 [Example 14, (S)-2-((2-aminopyrido[3,2-d]pyrimidin-4-yl)amino)hexan-1-ol]	1.1 µM	940 nM	1.6 µM	
CCC[C@@H](CO)Nc1nc(N)nc2cc(F)c(Cl)nc12 [Example 24D]	3.4 µM	3100 nM	18.4 µM	
CCCC[C@@H](Nc1nc(N)nc2cc(F)cnc12)[C@H](C)O [Example 87, (2S,3R)-3-((2-amino-7-fluoropyrido[3,2-d]pyrimidin-4-yl)amino)heptan-2-ol]	5 µM	4500 nM	> 50 µM	
CCC[C@@H](CO)Nc1nc(N)nc2cc(F)cnc12 [Example 43C, (S)-2-((2-amino-7-fluoropyrido[3,2-d]pyrimidin-4-yl)amino)pentan-1-ol]	1.1 µM	1000 nM	10.9 µM	
CCC[C@@H](CO)Nc1nc(N)nc2c(C)ccnc12 [Example 26E, (S)-2-((2-amino-8-methylpyrido[3,2-d]pyrimidin-4-yl)amino)pentan-1-ol]	2.3 µM	1700 nM	13.5 µM	
CC[C@H](C)[C@@H](CO)Nc1nc(N)nc2cccnc12 [Example 9, (2S,3S)-2-((2-aminopyrido[3,2-d]pyrimidin-4-yl)amino)-3-methylpentan-1-ol]	1.9 µM	1100 nM	7.2 µM	
CCCC[C@@](C)(Nc1nc(N)nc2cccnc12)C(C)O (single isomer, unassigned) [Example 96]				AC50 [1]: 1.1 µM; AC50 [2]: 1000 nM; AC50 [3]: 2.8 µM
CCCC[C@@H](Nc1nc(N)nc2cccnc12)[C@H](C)O [Example 86]				AC50 [1]: 2.9 µM; AC50 [2]: 2400 nM; AC50 [3]: 37.4 µM
CCCCNc1nc(N)nc2cccnc12 [Example 1B, N^4-butylpyrido[3,2-d]pyrimidine-2,4-diamine]	3.9 µM	2000 nM	2.7 µM	
CCCCCNc1nc(N)nc2cccnc12 [Example 11, N^4-pentylpyrido[3,2-d]pyrimidine-2,4-diamine]	10.1 µM	6000 nM	6.9 µM	
CCCC[C@@H](CO)Nc1nc(N)nc2ccccc12 [Example 48, (S)-2-((2-aminoquinazolin-4-yl)amino)hexan-1-ol]	0.85 µM	710 nM	0.57 µM	
CCC[C@H](Nc1nc(N)nc2cccnc12)C(=O)OC [Example 5B, (S)-methyl 2-((2-aminopyrido[3,2-d]pyrimidin-4-yl)amino)pentanoate]	> 50 µM	> 50000 nM	41 µM	
CCCC[C@H](CO)Nc1nc(N)nc2cc(O)cnc12 [Example 68, (R)-2-amino-4-((1-hydroxyhexan-2-yl)amino)pyrido[3,2-d]pyrimidin-7-ol]	11.1 µM	14200 nM	> 50 µM	
CCC[C@@H](CO)Nc1nc(N)nc2cc(Br)cnc12 [Example 18F, (S)-2-((2-amino-7-bromopyrido[3,2-d]pyrimidin-4-yl)amino)pentan-1-ol]	16.1 µM	15200 nM	30.6 µM	
C[C@@H](CN)Nc1nc(N)nc2cccnc12 [Example 49, (S)—N^4-(1-aminopropan-2-yl)pyrido[3,2-d]pyrimidine-2,4-diamine]				AC50 ([1]; PBMC): 22.4 µM; AC50 ([2]; PBMC): 18100 nM; AC50 ([3]; PBMC): 41.6 µM
CCCC[C@](C)(Nc1nc(N)nc2cccnc12)C(C)O (single isomer, unassigned) [Example 92]	4.3 µM	4700 nM	> 50 µM	
CCCCC(C)(CO)Nc1nc(N)nc2cc(F)cnc12 (stereo not drawn) [Example 63, 2-((2-amino-7-fluoropyrido[3,2-d]pyrimidin-4-yl)amino)-2-methylhexan-1-ol]	0.41 µM	430 nM	22.4 µM	

Structure (SMILES)	AC50 ([1]; Homo sapiens, PBMC, 24 h)	AC50 ([2]; Homo sapiens, PBMC, 24 h)	AC50 ([3]; Homo sapiens, PBMC, 24 h)	other results
Nc1nc(NC(CO)CO)c2ncccc2n1 [Example 17, 2-((2-aminopyrido[3,2-d]pyrimidin-4-yl)amino)propane-1,3-diol]	> 50 µM	> 50000 nM	> 50 µM	
Nc1nc(NCC2CCCO2)c2ncccc2n1 (stereo not drawn) [Example 16, N^4-((tetrahydrofuran-2-yl)methyl)pyrido[3,2-d]pyrimidine-2,4-diamine]	> 50 µM	> 50000 nM	> 50 µM	
CC(F)(F)CC[C@H](CO)Nc1nc(N)nc2cccnc12 [Example 78, (R)-2-((2-aminopyrido[3,2-d]pyrimidin-4-yl)amino)-5,5-difluorohexan-1-ol]	16 µM	14200 nM	> 50 µM	
CCC[C@H](Nc1nc(N)nc2cccnc12)C(=O)NCc1ccccn1 [Example 37, (S)-2-((2-aminopyrido[3,2-d]pyrimidin-4-yl)amino)-N-(pyridin-2-ylmethyl)pentanamide]	> 50 µM	> 50000 nM	> 50 µM	
CCCCC[C@](C)(CNC(C)=O)Nc1nc(N)nc2cc(Cl)cnc12 [Example 117, (R)—N-(2-((2-amino-7-chloropyrido[3,2-d]pyrimidin-4-yl)amino)-2-methylheptyl)acetamide]	0.37 µM	330 nM	> 50 µM	
CCCC[C@](C)(CNS(C)(=O)=O)Nc1nc(N)nc2cccnc12 [Example 53, (R)—N-(2-((2-aminopyrido[3,2-d]pyrimidin-4-yl)amino)-2-methylhexyl)methanesulfonamide]	0.26 µM	280 nM	3.9 µM	
CCCC[C@H](CO)Nc1nc(N)nc2cc(F)c(F)cc12 [Example 46C, (R)-2-((2-amino-6,7-difluoroquinazolin-4-yl)amino)hexan-1-ol]	28.6 µM	28500 nM	> 50 µM	
CCCC[C@H](CNS(C)(=O)=O)Nc1nc(N)nc2cccnc12 [Example 52, (R)—N-(2-((2-aminopyrido[3,2-d]pyrimidin-4-yl)amino)hexyl)methanesulfonamide]	3.2 µM	3600 nM	> 50 µM	
CCC[C@@H](CO)Nc1nc(N)nc2ccc(C)nc12 [Example 33, (S)-2-((2-amino-6-methylpyrido[3,2-d]pyrimidin-4-yl)amino)pentan-1-ol]	0.92 µM	850 nM	5.9 µM	
CC(C)C[C@@H](CO)Nc1nc(N)nc2cccnc12 [Example 3B, (S)-2-((2-aminopyrido[3,2-d]pyrimidin-4-yl)amino)-4-methylpentan-1-ol]	29.4 µM	15500 nM	14.5 µM	
CCCC[C@H](CO)Nc1nc(N)nc2cc(C)cnc12 [Example 107, (R)-2-((2-amino-7-methylpyrido[3,2-d]pyrimidin-4-yl)amino)hexan-1-ol]	2.8 µM	1800 nM	> 50 µM	
C=CCC[C@](C)(CO)Nc1nc(N)nc2cccnc12 [Example 83, (R)-2-((2-aminopyrido[3,2-d]pyrimidin-4-yl)amino)-2-methylhex-5-en-1-ol]	1.7 µM	1800 nM	43.1 µM	
C=CC[C@](C)(CO)Nc1nc(N)nc2cccnc12 [Example 81, (R)-2-((2-aminopyrido[3,2-d]pyrimidin-4-yl)amino)-2-methylpent-4-en-1-ol]	7.6 µM	7800 nM	> 50 µM	
CCCCC(CC)(CO)Nc1nc(N)nc2cccnc12 (stereo not drawn) [Example 85, 2-((2-aminopyrido[3,2-d]pyrimidin-4-yl)amino)-2-ethylhexan-1-ol]	0.86 µM	800 nM	4 µM	
Nc1nc(NCCO)c2ncccc2n1 [Example 12, 2-((2-aminopyrido[3,2-d]pyrimidin-4-yl)amino)ethanol]	> 50 µM	> 50000 nM	> 50 µM	
CCC[C@@H](CO)Nc1nc(N)nc2cc(CC)cnc12 [Example 21, (S)-2-((2-amino-7-ethylpyrido[3,2-d]pyrimidin-4-yl)amino)pentan-1-ol]	3.1 µM	2300 nM	4.8 µM	
